Measurements as given in US7223403B2, “Method to prepare compositions comprising yeast treated with electromagnetic energy” (Ultra Biotech Limited, priority 2003, dated 2007).
Like-named read-outs stand apart in the source and are kept apart here.

Legend:
[1] = system: Wistar King rat brain cancer cell line WKS-1; conditions: 2VCR 4.5 mg/kg/day i.v.; for Number of live animals remaining in the groups after 30 days of treatment: 30 rats per group
Method: The survival time of rats after tumor injection and treatment was studied.
(§1) The biological composition comprising 10^8 cells per ml of activated and conditioned yeast cells of the strain Saccharomyces cerevisiae Hansen strain AS2.501 was prepared by the methods described in Section 5.1 and subsections therein.
The animals were prepared in a similar manner as described in Section 8.1.
(§2) The rats injected with tumor cells were immediately divided into 4 experimental groups of ten rats per group and one control group. The four experimental groups were triplicated (i.e., using a total of 120 rats in the experimental groups). In group 2AY, the rats received 1.2 ml of the biological composition once per day. In group 2NY, the rats received 1.2 ml of the untreated yeast cells once per day. In group 2VCR, the rats were injected intravenously with 4.5 mg of vinblastine (VCR) per kg body weight per day. In group 2CK1, the rats received 1.2 ml of physiological saline once per day.
(§3) The rats received the biological compositions, untreated yeast cells, VCR, or saline on the same day as the tumor cells were transplanted. The rats in group 2CK2 also started receiving saline on the same day as the other four groups. The biological compositions, untreated yeast cells and saline were administered orally by a feeding tube and the VCR by intravenous injection for 30 consecutive days. The rats were observed over 6 months from the day of tumor inoculation and survival was recorded. The weight of the rats and the weight of the tumor were determined by standard techniques.

[2] = system: Wistar King rat brain cancer cell line WKS-1; assay: Wistar rat model of human brain cancer, growth of the tumor (Example 8); format: in vivo; conditions: WKS-1 tumor-bearing rats, 30 consecutive days of treatment, sacrificed on 31st day; AY/NY 0.8 ml oral once per day, VCR 3 mg/kg/day i.v.
Method: The growth of the tumor in the rats was studied.
About 2×10^7 viable tumor cells of the Wistar King rat brain cancer type WKS-1 (obtainable from the Shanghai Medical University, Shanghai, China) in about 0.4 ml culture suspension were injected subcutaneously into the animals.
In group AY, the rats received 0.8 ml of the biological composition once per day. In group NY, the rats received 0.8 ml of the untreated yeast cells once per day. […] In group CK1, the rats received 0.8 ml of physiological saline once per day.
On the 31st day from tumor inoculation, the rats were sacrificed.

[3] = system: kun ming murine brain cancer cell line B22; conditions: 2BCNU 1.2 mg/kg/day s.c.; for Number of live animals remaining in the groups after 30 days of treatment: 30 mice per group
Method: The survival time of mice after tumor injection and treatment was studied.
as §1
The animals were prepared in a similar manner as described in Section 6.1.
as §2, with “mice” for “rats”, “0.5” for “1.2”, “2BCNU,” for “2VCR,”, “subcutaneously” for “intravenously”, “1.2” for “4.5”, “chloroethylnitrosourea (BCNU)” for “vinblastine (VCR)”
as §3, with “mice” for “rats”, “BCNU” for “VCR,”, “BCNU” for “VCR”, “subcutaneous” for “intravenous”

[4] = system: kun ming murine brain cancer cell line B22; assay: kun ming mouse model of human brain cancer, growth of the tumor (Example 6); conditions: B22 tumor-bearing mice, 30 consecutive days of treatment, sacrificed on 31st day; AY/NY 0.3 ml oral once per day, BCNU 0.8 mg/kg/day s.c.
Method: as §1
The mice injected with tumor cells were immediately divided into 4 experimental groups of ten mice per group and one control group. The four experimental groups were triplicated (i.e., using a total of 120 mice in the experimental groups).
as §3, with “mice” for “rats”, “BCNU” for “VCR,”, “CK2” for “2CK2”, “BCNU” for “VCR”, “subcutaneous” for “intravenous”, “The rats were observed over 6 months from the day of tumor inoculation and survival was recorded.” left out

[5] = rats that survived, observed over 6 months, 2AY/2NY 1.2 ml oral per day, 30 days
[6] = mice that survived, observed over 6 months, 2AY/2NY 0.5 ml oral per day, 30 days

With `CC[C@]1(O)C[C@@H]2CN(CCc3c([nH]c4ccccc34)[C@@](C(=O)OC)(c3cc4c(cc3OC)N(C)[C@H]3[C@@](O)(C(=O)OC)[C@H](OC(C)=O)[C@]5(CC)C=CCN6CC[C@]43[C@@H]65)C2)C1` [VCR, vinblastine] the “Number of live animals remaining in the groups after 30 days of treatment” value (shortened to “Number of live animals remaining”) ([1]; 0 month after cessation of treatment, 2AY/2NY 1.2 ml oral per day) was 30, the “Number of live animals remaining” value ([1]; 1 month after cessation of treatment, 2AY/2NY 1.2 ml oral per day) was 30 and the “survival outcome during the experiment” value ([1]; 2NY 1.2 ml oral per day, 30 days, observed over 6 months) was “all died during the experiment”. For the same compound, the “Number of live animals remaining” value ([1]; 2 months after cessation of treatment, 2AY/2NY 1.2 ml oral per day) was 30, the “Number of live animals remaining” value ([1]; 3 months after cessation of treatment, 2AY/2NY 1.2 ml oral per day) was 17 and the “Number of live animals remaining” value ([1]; 4 months after cessation of treatment, 2AY/2NY 1.2 ml oral per day) was 7. For the same compound, the “Number of live animals remaining” value ([1]; 5 months after cessation of treatment, 2AY/2NY 1.2 ml oral per day) was 3, the “Number of live animals remaining” value ([1]; 6 months after cessation of treatment, 2AY/2NY 1.2 ml oral per day) was 0 and the “mean weight of rats and standard deviation” value [1, 5] was “all animals dead”. The “mean weight of tumor nodules and standard deviation” value [1, 5] was “all animals dead”, the “mean weight of rats and standard deviation” value [2] was 188.3 ± 8.3 g and the “mean weight of tumor nodules and standard deviation” value [2] was 2.87 ± 2.54 g.
For `O=NN(CCCl)C(=O)NCCCl` [BCNU, chloroethylnitrosourea], the “Number of live animals remaining” value ([3]; 0 month after cessation of treatment, 2AY/2NY 0.5 ml oral per day) was 30, the “Number of live animals remaining” value ([3]; 1 month after cessation of treatment, 2AY/2NY 0.5 ml oral per day) was 21 and the “survival outcome during the experiment” value ([3]; 2NY 0.5 ml oral per day, 30 days, observed over 6 months) was “all died during the experiment”. The “Number of live animals remaining” value ([3]; 2 months after cessation of treatment, 2AY/2NY 0.5 ml oral per day) was 15, the “Number of live animals remaining” value ([3]; 3 months after cessation of treatment, 2AY/2NY 0.5 ml oral per day) was 4 and the “Number of live animals remaining” value ([3]; 4 months after cessation of treatment, 2AY/2NY 0.5 ml oral per day) was 0. For the same compound, the “Number of live animals remaining” value ([3]; 5 months after cessation of treatment, 2AY/2NY 0.5 ml oral per day) was 0, the “Number of live animals remaining” value ([3]; 6 months after cessation of treatment, 2AY/2NY 0.5 ml oral per day) was 0 and the “mean weight of mice and standard deviation” value [3, 6] was “all animals dead”. The “mean weight of tumor nodules and standard deviation” value [3, 6] was “all animals dead”, the “mean weight of mice and standard deviation” value [4] was 18.4 ± 3.4 g and the “mean weight of tumor nodules and standard deviation” value [4] was 1.02 ± 0.52 mg.
